In patent publication US20250368678A1, “19-NOR-C3,3-DISUBSTITUTED C21-AZACYCLO-S[…] AND METHOD FOR USING SAME” (SHANDONG LUYE PHARMACEUTICAL CO., LTD., priority 2022, published 2025):

Assay: In vitro liver microsomal stability assay, rat
Type: in vitro ADME
Outline: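 Test compound at […] was incubated at 37° C with 0.5 mg/mL rat or human liver microsomes, 1 mM NADPH and 3 mM MgCl2, in triplicate, sampled 0–60 min. Remaining parent was quantified by LC-MS/MS, giving half-life and microsomal and hepatic intrinsic clearance.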

For `C[C@@]1(O)CC[C@H]2[C@H](CC[C@@H]3[C@@H]2CC[C@]2(C)[C@@H](C(=O)Cn4cnn(-c5cc(F)nc(F)c5)c4=O)CC[C@@H]32)C1` [Compound 41], the CLint scaled at 1 µM (Rat liver microsomes) was 23 mL/min/kg, the half-life at 1 µM (Rat liver microsomes) was 1.8 h and the “Remaining amount % at 60 min” value (Rat liver microsomes 0.5 mg/mL, NADPH) was 68.3%. It also gave a microsomal CLint at 1 µM (Rat liver microsomes, read-out: CLint(mic)) of 13 µL/min/mg.
